What all share (assay type): biochemical
The target in test [1] is T1, Cynomolgus Monkey Testicular C17-20 Lyase (Macaca fascicularis, UniProt Q2XVA1).
T1 construct: Microsomes are isolated from human or cynomolgus monkey tissue; from tissue; host or cells: cynomolgus monkey testis, microsomes
T1 sequence (Q2XVA1 1-508): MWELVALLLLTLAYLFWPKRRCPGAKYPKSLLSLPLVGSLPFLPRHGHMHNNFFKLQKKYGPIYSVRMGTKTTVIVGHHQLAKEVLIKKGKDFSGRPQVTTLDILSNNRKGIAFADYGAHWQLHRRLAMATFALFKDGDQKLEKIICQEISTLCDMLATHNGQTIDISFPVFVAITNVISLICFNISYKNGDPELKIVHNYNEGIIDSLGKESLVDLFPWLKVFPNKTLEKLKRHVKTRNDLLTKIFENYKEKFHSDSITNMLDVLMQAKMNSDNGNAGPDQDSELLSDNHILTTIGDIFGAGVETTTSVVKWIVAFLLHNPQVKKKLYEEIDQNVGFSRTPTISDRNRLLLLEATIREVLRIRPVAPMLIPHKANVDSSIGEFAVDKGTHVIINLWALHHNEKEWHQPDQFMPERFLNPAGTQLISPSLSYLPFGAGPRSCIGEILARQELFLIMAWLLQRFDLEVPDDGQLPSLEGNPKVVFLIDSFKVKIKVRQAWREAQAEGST
As to the kind of experiment: Screen for time-dependent inhibition / inhibition of cynomolgus monkey testicular C17-20 lyase (microsomal preparation). As for the experimental part: (§1) Utilizing an in vitro assay, the activity of the compounds of formulas (I) and (II) as inhibitors of steroid C17-20 lyase are established using microsomal preparations of the enzyme from human or cynomolgus monkey testicular tissue. Human testes were acquired from therapeutic orchiectomies. Microsomes are isolated from human or cynomolgus monkey tissue. The compound to be tested is dissolved in dimethyl sulfoxide and diluted in 0.05M potassium phosphate buffer, pH 7.4, to give the desired concentrations of test compound. Assays contain an NADPH regenerating system comprised of 1 mM NADPH, 5 mM glucose-6-phosphate, 1 IU/mL glucose-6-phosphate dehydrogenase and microsomal protein in a total volume of 0.2 mL. Control assays contain all components, including dimethyl sulfoxide, but no test compound. All assays are performed in duplicate. For determination of time dependent C17-20 lyase inactivation, the test compound is incubated with 20 to 62 μg/mL microsomal protein, buffer and the NADPH regenerating system described above at 34° C. for 0 or 40 minutes. Aliquots of 180 μL are then removed and assayed for enzyme activity by addition to 7-^3 H-17α-hydroxypregnenolone (11.2 mCi/mmole; 0.2 μCi per assay) plus unlabeled 17α-hydroxypregnenolone to give a total substrate concentration of 1.0 μM or 0.3 μM per assay and are subsequently incubated at 34° C. for 6 minutes. For determination of reversible inhibition by the test compound, the reaction is initiated by the addition of substrate, 7-^3 H-17α-hydroxypregnenolone (11.2 mCi/mmole; 0.20 μCi per assay) plus unlabeled 17α-hydroxypregnenolone to yield a final concentration of 0.3 μM (=Km), to the other assay components. The complete assay is incubated at 34° C. for 6 minutes. Each assay is terminated by addition of 5 mL of chloroform/methanol (2:1). Carrier steroids representing substrates and products (17α-hydroxypregnenolone, dehydroepiandrosterone, and androst-5-ene-3β,17β-diol and 0.8 mL of distilled, deionized water are also added at this time. The steroids are extracted by the method of Moore and Wilson (Methods in Enzymol., eds. O'Malley, B. W. and Hardman, J. G. 36, 1975, pp.466-474). The organic phase containing the steroids is evaporated using nitrogen gas, the residue is dissolved in 18% tetrahydrofuran (v/v) in hexane and the steroids are separated by HPLC on an Si60 (5 μm) column (250×4 mm) using a gradient of 18-22% tetrahydrofuran (v/v) in hexane. Radioactivity in the steroid peaks is measured using a Radiometric Model HS or Model A515 Flo-One detector.
(§2) The enzyme activity for each assay is calculated from the percent conversion of substrate to products, and the results are expressed as percent inhibition of control.

Test [2] addresses T1, Cynomolgus Monkey Testicular C17-20 Lyase. As to the kind of experiment: Screen for inhibition of cynomolgus monkey testicular C17-20 lyase by compounds of formula (II). The protocol: as §1, §2
The target in test [3] is T2, Human Testicular C17-20 Lyase (Homo sapiens, UniProt P05093).
T2 construct: Microsomes are isolated from human or cynomolgus monkey tissue; from tissue; host or cells: human testes from therapeutic orchiectomies, microsomes
T2 sequence (P05093 1-508): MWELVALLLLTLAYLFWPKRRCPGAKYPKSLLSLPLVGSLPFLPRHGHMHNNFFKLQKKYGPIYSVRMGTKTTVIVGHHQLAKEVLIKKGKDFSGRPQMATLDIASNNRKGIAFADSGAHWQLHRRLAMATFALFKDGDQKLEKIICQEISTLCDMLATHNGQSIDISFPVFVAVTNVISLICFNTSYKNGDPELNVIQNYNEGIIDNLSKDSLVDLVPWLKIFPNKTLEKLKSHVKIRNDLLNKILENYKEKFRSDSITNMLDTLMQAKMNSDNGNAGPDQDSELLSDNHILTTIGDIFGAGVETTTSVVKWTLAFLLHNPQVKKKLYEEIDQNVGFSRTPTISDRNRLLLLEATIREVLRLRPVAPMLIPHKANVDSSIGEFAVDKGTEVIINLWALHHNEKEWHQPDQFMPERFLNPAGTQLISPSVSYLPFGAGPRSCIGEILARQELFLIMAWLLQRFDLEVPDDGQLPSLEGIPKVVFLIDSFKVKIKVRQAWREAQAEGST
As to the kind of experiment: Screen for time-dependent inhibition of human testicular C17-20 lyase (microsomal preparation). As for the experimental part: as §1, §2

Our source for the inhibition values is patent US5677293A, “16 unsaturated C17 heterocyclic steroids useful as steroid C17-20 lyase inhibitors” (Merrell Pharmaceuticals Inc., priority 1996, dated 1997).

Broadly, the inhibition is the change of the read-out against control, counted positive when it falls.

In test [1] (preincubation 0 min), `C[C@]12CCC(=O)CC1=CC[C@@H]1[C@@H]2CC[C@]2(C)C(c3csc(N)n3)=CC[C@@H]12` [17-(2-amino-4-thiazolyl)-androsta-5,16-dien-3-one] yielded an inhibition at 1 µM of 66% and an inhibition at 10 µM of 92%.

For the compound `C[C@]12CC[C@H](O)CC1=CC[C@@H]1[C@@H]2CC[C@]2(C)C(c3ccco3)=CC[C@@H]12` [17-(2-furanyl)androsta-5,16-dien-3β-ol, (3β)-17-(2-furanyl)-androsta-5,16-dien-3-ol], in test [2], the inhibition at 0.1 µM amounted to 10% and the inhibition at 1 µM was 72%.

In test [2], `C[C@]12CC[C@H](O)CC1=CC[C@@H]1[C@@H]2CC[C@]2(C)C(c3cccs3)=CC[C@@H]12` [17-(2-thienyl)androsta-5,16-dien-3β-ol, (3β)-17-(2-thienyl)-androsta-5,16-dien-3-ol] came in with an inhibition at 0.1 µM of 43% and an inhibition at 1 µM of 75%.

For `C[C@]12CC[C@H](O)CC1=CC[C@@H]1[C@@H]2CC[C@]2(C)C(c3ccoc3)=CC[C@@H]12` [17-(3-furanyl)androsta-5,16-dien-3β-ol, (3β)-17-(3-furanyl)-androsta-5,16-dien-3-ol], in test [2], the inhibition at 0.1 µM amounted to 53% and at 1 µM the inhibition was 91%.

In test [2], `C[C@]12CC[C@H](O)CC1=CC[C@@H]1[C@@H]2CC[C@]2(C)C(c3ccsc3)=CC[C@@H]12` [17-(3-thienyl)androsta-5,16-dien-3β-ol, (3β)-17-(3-thienyl)-androsta-5,16-dien-3-ol] gave an inhibition at 0.1 µM of 21% and an inhibition at 1 µM of 42%.

In test [3] (preincubation 0 min), `C[C@]12CC[C@H](O)CC1=CC[C@@H]1[C@@H]2CC[C@]2(C)C(c3csc(N)n3)=CC[C@@H]12` [(3β)-17-(2-amino-4-thiazolyl)-androsta-5,16-dien-3-ol.HBr.CH3 CH2 OH] gave an inhibition at 1 µM of 44% and an inhibition at 10 µM of 62%. Moreover, in test [3] (preincubation 40 min), the inhibition at 1 µM is 32% and the inhibition at 10 µM turned out to be 29%.

Consider `CNc1nc(C2=CC[C@H]3[C@@H]4CC=C5C[C@@H](O)CC[C@]5(C)[C@H]4CC[C@]23C)cs1` [(3β)-17-[2-(methylamino)-4-thiazolyl]-androsta-5,16-dien-3-ol.HBr], for which, in test [1] (preincubation 0 min), the inhibition at 1 µM worked out at 28% and at 10 µM the inhibition was 40%. In test [1] (preincubation 40 min), this compound yielded an inhibition at 1 µM of 26% and an inhibition at 10 µM of 80%.
